In EP1060162B1, “URETHANES DERIVED FROM AZACYCLOALKANES, THIO AND DITHIO ANALOGUES, PRODUCTION AND USE THEREOF AS 2,3 EPOXYSQUALENE LANESTEROL CYCLASE INHIBITORS” (Boehringer Ingelheim Pharma KG, priority 1997, dated 1999):
Counter-ions that a name gives are not always drawn. Like-named read-outs stand apart in the source and are kept apart here.

Key:
[1] = system: 2,3-Epoxisqualen-Lanosterol-Cyclase; assay: In-vivo effect in the rat after oral administration: 2,3-epoxysqualene level in the liver; set-up: species or system Ratte
Method: II. Messung der in-vivo Wirkung an der Ratte nach oraler Gabe
Die Inhibierung des Enzyms 2,3-Epoxisqualen-Lanosterol-Cyclase bewirkt eine Erhöhung der 2,3-Epoxisqualenspiegel in Leber und Plasma. Die Menge an gebildetem 2,3-Epoxisqualen dient daher als direktes Maß für die Wirkstärke am Ganztier.Die Bestimmung wurde nach der in J. Lipid. Res. 38, 564-575, [1997] beschriebenen Methode nach t = 3 bzw. 8 Stunden nach Substanzgabe mit Konzentrationen von c = 0.01, 0.03, 0.1, 0.3 und 1.0 mg/kg durchgeführt. In der folgenden Tabelle 3 sind beispielhaft die Ergebnisse für die vorstehend erwähnten Substanzen A, B, C, D, E, G, H, I und K angegeben.

[2] = biological target: T1, ^14C-Acetat-Einbau in die mit Digitonin fällbaren Steroide (Homo sapiens, UniProt P48449); assay: Inhibition of 14C-acetate incorporation into digitonin-precipitable steroids; format: cell-based; conditions: read-out: Prozentwerte, um die die Verbindungen den ^14C-Acetat-Einbau hemmen
T1 sequence (P48449 2-732): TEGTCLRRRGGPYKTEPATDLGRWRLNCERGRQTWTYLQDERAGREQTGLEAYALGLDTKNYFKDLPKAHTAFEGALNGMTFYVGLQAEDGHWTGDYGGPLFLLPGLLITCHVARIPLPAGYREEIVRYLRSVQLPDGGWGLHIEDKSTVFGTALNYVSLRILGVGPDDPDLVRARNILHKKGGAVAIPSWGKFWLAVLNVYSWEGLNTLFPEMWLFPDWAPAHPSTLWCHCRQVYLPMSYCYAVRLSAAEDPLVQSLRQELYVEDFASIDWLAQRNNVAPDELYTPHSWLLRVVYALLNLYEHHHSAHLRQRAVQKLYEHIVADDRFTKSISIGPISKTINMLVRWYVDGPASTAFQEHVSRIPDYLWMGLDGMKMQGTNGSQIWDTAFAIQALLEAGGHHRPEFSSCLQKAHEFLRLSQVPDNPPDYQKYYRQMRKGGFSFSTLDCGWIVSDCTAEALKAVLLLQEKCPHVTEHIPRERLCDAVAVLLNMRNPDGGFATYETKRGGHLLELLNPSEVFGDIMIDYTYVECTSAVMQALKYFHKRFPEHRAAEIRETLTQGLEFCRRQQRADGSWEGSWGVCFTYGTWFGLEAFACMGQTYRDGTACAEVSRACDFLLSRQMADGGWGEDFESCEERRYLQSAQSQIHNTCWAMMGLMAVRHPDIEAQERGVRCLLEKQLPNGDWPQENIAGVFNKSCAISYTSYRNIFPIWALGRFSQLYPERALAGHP
Excerpt: I. Messung der Hemmung des ^14C-Acetat-Einbaus in die mit Digitonin fällbaren Steroide:
Die Untersuchung der Hemmwirkung wurde nach der in J. Lipid. Res. 37, 148-157 [1996] beschriebenen Methode bei Testkonzentrationen von 10^-8 und 10^-9 Mol/l durchgeführt.
Die Prozentwerte, um die obigen Verbindungen den ^14C-Acetat-Einbau hemmen, sind in Tabelle 1 angegeben.

Asp. niger ATCC 16404 = assay: Fungistatic effect, serial dilution test (microtitre system); format: cell-based; conditions: Aspergillus niger
Method: (§1) IV. Bestimmung der fungistatischen Wirkung
(§2) Die fungistatische Wirkung wurde über den Reihenverdünnungstest (Mikrotitersystem) bestimmt. Als Nährmedium diente Sabouraud-Bouillon. Das Inoculum betrug ca. 10^4 bis 10^5 KBE/ml (KBE = koloniebildende Einheiten); die Bebrütungszeit betrug 2 bis 4 Tage bei 26°C.
(§3) Es wurde die niedrigste Konzentration, die sichtbares Wachstum nicht mehr zuließ (minimale Hemmkonzentration MHK), bestimmt.
(§4) Geprüft wurden die vorstehend erwähnten Verbindungen A, B, D, E, F, H, I, K, L und M. Die Ergebnisse sind in der folgenden Tabelle 5 zusammengefaßt. Die MHK ist in µg/ml angegeben.

Rhod. rubra 49 = assay: as above; format: cell-based; conditions: read-out: MHK
Method: as §1, §2, §3, §4

[3] = system: Sacch. carlsbergensis ATCC 9080; assay: as above; format: cell-based; conditions: Saccharomyces pastorianus
Method: as §1, §2, §3, §4

Pen.notatum CBS 19746 = assay: as above; format: cell-based; conditions: Penicillium chrysogenum
Method: as §1, §2, §3, §4

[4] = system: Trich. mentagrophytes ATCC 9129; assay: as above; format: cell-based; conditions: Trichophyton mentagrophytes
Method: as §1, §2, §3, §4

[5] = system: Cand. albicans ATCC 10231; assay: as above; format: cell-based; conditions: Candida albicans
Method: as §1, §2, §3, §4

[6] = Lipid lowering in the normolipaemic golden hamster; format: in vivo, Goldhamster; conditions: Dosis 57.5 mg/kg/Tag; compared with control group fed without test substance
Excerpt: III. Lipidsenkung am normolipämischen Goldhamster.
Diese Bestimmung wurde nach der in J. Lipid. Res. 38, 564-575, (1997) beschriebenen Methode durchgeführt. Am Ende des Versuchs wurde Gesamtcholesterol, β-Lipoprotein-Cholesterol sowie HDL-Cholesterol bestimmt und mit den Werten einer ohne Testsubstanz gefütterten Kontrollgruppe verglichen.

[7] = ATCC16404, Asp., Sabouraud-Bouillon, 2 bis 4 Tage bei 26°C, read-out: MHK
[8] = Rhod., Sabouraud-Bouillon, 2 bis 4 Tage bei 26°C
[9] = ATCC9080, Sacc., Sabouraud-Bouillon, 2 bis 4 Tage bei 26°C, read-out: MHK
[10] = CBS19746, Pen., Sabouraud-Bouillon, 2 bis 4 Tage bei 26°C, read-out: MHK
[11] = ATCC9129, Trich., Sabouraud-Bouillon, 2 bis 4 Tage bei 26°C, read-out: MHK
[12] = ATCC10231, Cand., Sabouraud-Bouillon, 2 bis 4 Tage bei 26°C, read-out: MHK

Compound | 2,3-Epoxysqualen-Konzentration in der Leber (Ratte) ([1]; c = 1.0 mg/kg, t = 3 h) [µg/g] | 2,3-Epoxysqualen-Konzentration in der Leber (Ratte) ([1]; c = 1.0 mg/kg, t = 8 h) [µg/g] | inhibition at 0.01 µM ([2]; Testkonzentration 10^-8 Mol/l) [%] | inhibition at 0.001 µM ([2]; Testkonzentration 10^-9 Mol/l) [%] | MIC (Asp. niger ATCC 16404; [7]) [µg/mL] | MIC (Rhod. rubra 49; [8]) [µg/mL] | MIC [3, 9] [µg/mL] | MIC (Pen.notatum CBS 19746; [10]) [µg/mL] | MIC [4, 11] [µg/mL] | MIC [5, 12] [µg/mL] | 2,3-Epoxysqualen-Konzentration in der Leber (Ratte) ([1]; c = 0.1 mg/kg, t = 3 h) [µg/g] | 2,3-Epoxysqualen-Konzentration in der Leber (Ratte) ([1]; c = 0.1 mg/kg, t = 8 h) [µg/g] | further results
CN(C)Cc1ccc(C(=O)C2CCN(C(=S)SCc3ccccc3)CC2)cc1.Cl [B, N-(Benzylthio) thiocarbonyl-4-[4-(dimethylaminomethyl)benzoyl]piperidin-hydrochlorid] | 39.2 | 42.0 | 85 | 47 | 32 | 16 | 32 | 8 | 2 | 64 | – | – | 2,3-Epoxysqualen-Konzentration in der Leber (Ratte) ([1]; c = 0.3 mg/kg, t = 3 h): 4.5 µg/g; 2,3-Epoxysqualen-Konzentration in der Leber (Ratte) ([1]; c = 0.3 mg/kg, t = 8 h): 5.8 µg/g
CN(C)Cc1ccc(SC2CCN(C(=O)OCc3ccccc3)CC2)cc1.Cl [C, N-Benzyloxycarbonyl-4-[4-(dimethylaminomethyl)phenylthio]-piperidin-hydrochlorid] | 3.8 | 2.0 | 78 | 57 | – | – | – | – | – | – | 0.5 | 1.3 | 2,3-Epoxysqualen-Konzentration in der Leber (Ratte) ([1]; c = 0.01 mg/kg, t = 3 h): 0.6 µg/g; 2,3-Epoxysqualen-Konzentration in der Leber (Ratte) ([1]; c = 0.01 mg/kg, t = 8 h): 3.0 µg/g; 2,3-Epoxysqualen-Konzentration in der Leber (Ratte) ([1]; c = 0.3 mg/kg, t = 3 h): 0.5 µg/g; 2,3-Epoxysqualen-Konzentration in der Leber (Ratte) ([1]; c = 0.3 mg/kg, t = 8 h): 1.8 µg/g
CN(C)Cc1ccc(SC2CCN(C(=O)Oc3ccc(Cl)cc3)CC2)cc1 [D, N-(4-Chlorphenoxy)carbonyl-4-[4-(dimethylaminomethyl)-phenylthio]piperidin-hydrochlorid] | – | – | – | – | – | – | – | – | – | – | 1.4 | 1.8 | 2,3-Epoxysqualen-Konzentration in der Leber (Ratte) ([1]; c = 0.01 mg/kg, t = 3 h): 1.3 µg/g; 2,3-Epoxysqualen-Konzentration in der Leber (Ratte) ([1]; c = 0.01 mg/kg, t = 8 h): 1.0 µg/g; inhibition at 0.001 µM [2]: 55%; inhibition at 0.01 µM [2]: 86%; MIC (Asp. niger ATCC 16404; ATCC16404, read-out: MHK): 256 µg/mL; MIC (Rhod. rubra 49): 64 µg/mL; MIC ([3]; ATCC9080, read-out: MHK): 128 µg/mL; MIC (Pen.notatum CBS 19746; CBS19746, read-out: MHK): 128 µg/mL; MIC ([4]; ATCC9129, read-out: MHK): 16 µg/mL; MIC ([5]; ATCC10231, read-out: MHK): 64 µg/mL
CN(C)Cc1ccc(CC2CCN(C(=S)SCc3ccccc3)CC2)cc1.Cl [E, N-(Benzylthio)thiocarbonyl-4-[4-(dimethylaminomethyl)-benzyl]piperidin-hydrochlorid] | – | – | 87 | 47 | 8 | 4 | 16 | 1 | 1 | 16 | 5.6 | 4.4 | 2,3-Epoxysqualen-Konzentration in der Leber (Ratte) ([1]; c = 0.01 mg/kg, t = 3 h): 0.9 µg/g; 2,3-Epoxysqualen-Konzentration in der Leber (Ratte) ([1]; c = 0.01 mg/kg, t = 8 h): 1.0 µg/g
CN(C)Cc1ccc(C=C2CCN(C(=S)SCc3ccccc3)CC2)cc1.Cl [F, N-(Benzylthio)thiocarbonyl-4-[4-(dimethylaminomethyl)-benzyliden]piperidin-hydrochlorid] | – | – | 84 | 45 | 8 | 4 | 16 | 4 | 2 | 16 | – | – | –
CN(C)Cc1ccc(CC2CCN(C(=S)Oc3ccc(Cl)cc3)CC2)cc1 [G, N-(4-Chlorphenoxy)thiocarbonyl-4-[4-(dimethylaminomethyl)-benzyl]piperidin-hydrochlorid] | 87.4 | 134.2 | 83 | 56 | – | – | – | – | – | – | 10.3 | 11.5 | –
Cc1ccc(OC(=S)N2CCC(Cc3ccc(CN(C)C)cc3)CC2)cc1.Cl [L, 4-[4-(Dimethylaminomethyl)benzyl] -N-(4-methylphenoxy) - thiocarbonylpiperidin-hydrochlorid] | – | – | 88 | 64 | 64 | 8 | 64 | 32 | 1 | 32 | – | – | –
CN(C)Cc1ccc(CC2CCN(C(=O)Oc3ccc(F)cc3)CC2)cc1 [M, 4-[4-(Dimethylaminomethyl)benzyl]-N-(4-fluorphenoxy)-carbonylpiperidin-hydrochlorid] | – | – | – | – | – | – | – | – | – | – | – | – | Gesamtcholesterol [6]: -26.8%; HDL-Cholesterol [6]: -20.4%; β-Lipoprotein-Cholesterol [6]: -31.6%; inhibition at 0.001 µM [2]: 59%; inhibition at 0.01 µM [2]: 84%; MIC (Asp. niger ATCC 16404; ATCC16404, read-out: MHK): 64 µg/mL; MIC (Rhod. rubra 49): 32 µg/mL; MIC ([3]; ATCC9080, read-out: MHK): 512 µg/mL; MIC (Pen.notatum CBS 19746; CBS19746, read-out: MHK): 512 µg/mL; MIC ([4]; ATCC9129, read-out: MHK): 2 µg/mL; MIC ([5]; ATCC10231, read-out: MHK): 128 µg/mL
CN(C)Cc1ccc([C@H]2CC[C@H](N(C)C(=O)c3ccc(Cl)cc3)CC2)cc1 [V, reference compound] | – | – | 59 | 23 | – | – | – | – | – | – | – | – | –
CN(C)Cc1ccc(SC2CCN(C(=S)SCc3ccccc3)CC2)cc1.Cl [Verbindung A, N-(Benzylthio)thiocarbonyl-4-[4-(dimethylaminomethyl)-phenylthio]piperidin-hydrochlorid] | 9.3 | 9.8 | 85 | 53 | 8 | 16 | 8 | 4 | 1 | 16 | – | – | 2,3-Epoxysqualen-Konzentration in der Leber (Ratte) ([1]; c = 0.3 mg/kg, t = 3 h): 2.0 µg/g; 2,3-Epoxysqualen-Konzentration in der Leber (Ratte) ([1]; c = 0.3 mg/kg, t = 8 h): 1.2 µg/g
Cc1ccc(CC(=O)O[C@H]2CC[C@H](c3ccc(CN(C)C)cc3)CC2)cc1 [W, trans-O-(p-Tolylacetyl)-4-(4-dimethylaminomethylphenyl)-cyclohexanol, reference compound] | – | – | 72 | 21 | – | – | – | – | – | – | – | – | –
